Measurements taken from patent publication US20060089347A1, “Substituted azepines as histamine h3 receptor antagonists, preparation and therapeutic uses” (Eli Lilly and Company, priority 2002, published 2006).
Where a name gives a salt, the structure may show the parent alone.

Legend:
[1] = rat pharmacokinetics iv/po; format: in vivo, Male Sprague Dawley Rats; conditions: male, Sprague Dawley, blood; for bioavailability: 3 mg/kg iv or 10 mg/kg po, AUC 0-8 hr po/iv ratio, vehicle water; for half-life: 10 mg/kg po
Description: Non-imidazole containing histamine H3 receptor antagonists disclosed in the literature generally have very poor pharmacokinetic properties (see J. Apelt, et al, J. Med. Chem. 2002, 45, 1128-1141). […] Male Sprague Dawley Rats (n=3 per dose arm) were separately dosed with 3 mg/kg iv or 10 mg/kg po of compound examples 8 and 19 (vehicle: water; dose volume: 1 mL/kg iv, 10 ml/kg po). Approximately 0.5 mL of blood was collected in heparin collection tubes at multiple time points over an 8 or 24 hour period for examples 8 and 19 respectively, and the samples were analyzed using LC/MS/MS.

H3R membranes = biological target: T1, H3R membranes (Homo sapiens, UniProt Q9Y5N1); assay: [35S]GTPγS binding assay (antagonist activity); format: biochemical; conditions: inhibition of [35S]GTPγS binding to H3R membranes in presence of agonist R(-)alpha methylhistamine
T1 construct: expressed in transfected cells; host or cells: HEK293 (clone H3R8)
T1 sequence (Q9Y5N1 whole entry): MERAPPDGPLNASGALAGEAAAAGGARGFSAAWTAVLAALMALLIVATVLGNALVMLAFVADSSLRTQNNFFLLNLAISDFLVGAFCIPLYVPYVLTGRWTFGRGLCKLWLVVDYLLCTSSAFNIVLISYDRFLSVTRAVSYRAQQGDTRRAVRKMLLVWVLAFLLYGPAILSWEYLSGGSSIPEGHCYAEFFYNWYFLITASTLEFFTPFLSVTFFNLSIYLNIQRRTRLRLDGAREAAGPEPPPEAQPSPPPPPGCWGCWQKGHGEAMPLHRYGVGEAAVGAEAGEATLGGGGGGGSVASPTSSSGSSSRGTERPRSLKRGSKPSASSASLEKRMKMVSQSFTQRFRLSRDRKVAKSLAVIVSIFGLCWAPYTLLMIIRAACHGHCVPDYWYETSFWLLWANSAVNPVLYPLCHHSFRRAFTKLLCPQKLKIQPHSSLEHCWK
Description: Membranes isolated as described in (Preparation of Histamine Receptor Subtype Membranes) were used in a [35S]GTPχS functional assay. Binding of [35S]GTPχS to membranes indicates agonist activity. Compounds of the invention of Formula I were tested for their ability to inhibit binding in the presence of agonists. Alternately, the same transfected cell lines were used for a cAMP assay wherein H3R agonists inhibited forskolin-activated synthesis of cAMP. Compounds of Formula I were tested for their ability to permit forskolin-stimulated cAMP synthesis in the presence of agonist.
(§1) cDNA for the human histamine 3 receptor was cloned and expressed as described in (Preparation of Histamine Receptor Subtye Membranes: A), above. Transfected cells were selected using G418 ([…]), grown, and tested for histamine binding by the SPA described above. For total binding, cells were assayed in a SPA reaction described above containing 50 mM Tris-HCL (assay buffer), pH 7.6, 1 mg wheat germ agglutinin SPA beads (Amersham Pharmacia Biotech, #RPNQ0001), and 1nM […]-n-alpha-methylhistamine (NEN, NET1027) (total volume per well=200μl). Thioperimide was added to determine non-specific binding. […]
Antagonist activity of selected compounds was tested for inhibition of [35S] […] Plates were counted in Wallac Trilux 1450 Microbeta scintillation counter for 1 minute. […]

H3R = biological target: T2, H3R (Homo sapiens, UniProt Q9Y5N1); assay: competitive inhibition SPA binding assay, H3R; conditions: selectivity panel
T2 construct: expressed in transfected cells; host or cells: HEK293 (clone H3R8)
T2 sequence (Q9Y5N1 whole entry): as above
Excerpt: The inventive compounds can readily be evaluated by using a competitive inhibition Scintillation Proximity Assay (SPA) based on a H3R binding assay using [3H] a methylhistamine as ligand. Stable cell lines, including but not limited to HEK can be transfected with cDNA coding for H3R to prepare membranes used for the binding assay. The technique is illustrated below (Preparation of Histamine Receptor Subtype Membranes) for the histamine receptor subtypes.
as §1, with “binding. Several clones were selected as positive for binding, and a single clone (H3R8) was used to prepare membranes for binding studies described above. Five micrograms of protein was used per well in the SPA receptor-binding assay.” for “binding.”

H4R = biological target: T3, H4R (Homo sapiens, UniProt Q9H3N8); assay: competitive binding assay, GPRv53 (H4R); conditions: for Ki: competitive binding, selectivity panel; for inhibition of binding to H4R: in contrast to H3R
T3 construct: expressed in transfected cells; host or cells: HEK293 (HEK293 GPRv53 50 cells)
Description: cDNA for the human GPRv53 receptor was cloned and expressed as described in (Preparation of Histamine Receptor Subtype Membranes: A), above. Transfected cells were selected, tested for histamine binding, and selected. HEK293 GPRv53 50 cells were grown to confluency in DMEM/F12 (Gibco) supplemented with 5% FBS and 500 ug/ml G418 and washed with Delbecco's PBS (Gibco) and harvested by scraping. Whole cells were homogenized with a Polytron tissuemizer in binding buffer, 50 mM Tris pH 7.5. Cell lysates, 50 ug, were incubated in 96 well dishes with 3 nM (3H) Histamine and compounds in binding buffer for 2 hours at room temperature. Lysates were filtered through glass fiber filters (Perlin Elmer) with a Tomtec cell harverster. Filters were counted with melt-on scintillator sheets (Perlin Elmer) in a Wallac Trilux 1450 Microbeta Scintillation counter for 5 minutes.
(§2) To investigate the selectivity of the antagonists for the histamine receptors, a competitive binding assay described above was performed. […] Until the present invention, most known H3R antagonists also bound H4R.

H1R = biological target: T4, H1R (Homo sapiens, UniProt P35367); assay: competitive SPA binding assay, H1R; conditions: selectivity panel
T4 construct: expressed in transfected cells; host or cells: HEK293 (clone HIR40), vector pcDNA3.1(+)
T4 sequence (P35367 whole entry): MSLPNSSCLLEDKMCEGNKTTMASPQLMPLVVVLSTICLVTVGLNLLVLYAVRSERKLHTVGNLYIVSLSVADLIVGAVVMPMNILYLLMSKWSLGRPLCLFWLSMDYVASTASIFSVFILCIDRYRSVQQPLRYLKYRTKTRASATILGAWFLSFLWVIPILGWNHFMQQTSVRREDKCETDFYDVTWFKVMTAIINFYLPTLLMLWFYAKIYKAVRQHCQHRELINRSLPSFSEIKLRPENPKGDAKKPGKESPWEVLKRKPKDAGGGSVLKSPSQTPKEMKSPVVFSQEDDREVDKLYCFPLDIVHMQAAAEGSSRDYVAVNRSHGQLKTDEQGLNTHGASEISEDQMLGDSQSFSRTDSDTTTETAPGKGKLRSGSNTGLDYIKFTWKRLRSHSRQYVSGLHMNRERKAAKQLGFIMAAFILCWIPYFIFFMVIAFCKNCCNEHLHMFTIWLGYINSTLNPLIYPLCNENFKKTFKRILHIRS
Description: cDNA for the human histamine 1 receptor (H1R) was cloned into a mammalian expression vector containing the CMV promoter (pcDNA3.1(+), Invitogen) and transfected into HEK293 cells using the FuGENE Tranfection Reagent (Roche Diagnostics Corporation). Transfected cells were selected using G418 (500 μ/ml). Colonies that survived selection were grown and tested for histamine binding to cells grown in 96-well dishes using a scintillation proximity assay (SPA) based radioligand binding assay. Briefly, cells, representing individual selected clones, were grown as confluent monolayers in 96-well dishes (Costar Clear Bottom Plates, #3632) by seeding wells with 25,000 cells and growing for 48 hours (37° C., 5% CO2). Growth media was removed and wells were rinsed two times with PBS (minus Ca^2+ or Mg^2+). For total binding, cells were assayed in a SPA reaction containing 50 mM Tris-HCL (assay buffer), pH 7.6, 1 mg wheat germ agglutinin SPA beads (Amersham Pharmacia Biotech, #RPNQ0001), and 0.8 nM ^3H-pyrilamine (Net-594, NEN) (total volume per well=[…]). Astemizole (10 μM, Sigma #A6424) was added to appropriate wells to determine non-specific binding. Plates were covered with FasCal and incubated at room temperature for 120 minutes. […] Plates were counted in a Wallac Trilux 1450 Microbeta scintillation counter. […]

H2R = biological target: T5, H2R (Homo sapiens, UniProt P25021); assay: competitive SPA binding assay, H2R; conditions: selectivity panel
T5 construct: expressed in transfected cells; host or cells: HEK 293 (clone H2R10)
T5 sequence (P25021 whole entry): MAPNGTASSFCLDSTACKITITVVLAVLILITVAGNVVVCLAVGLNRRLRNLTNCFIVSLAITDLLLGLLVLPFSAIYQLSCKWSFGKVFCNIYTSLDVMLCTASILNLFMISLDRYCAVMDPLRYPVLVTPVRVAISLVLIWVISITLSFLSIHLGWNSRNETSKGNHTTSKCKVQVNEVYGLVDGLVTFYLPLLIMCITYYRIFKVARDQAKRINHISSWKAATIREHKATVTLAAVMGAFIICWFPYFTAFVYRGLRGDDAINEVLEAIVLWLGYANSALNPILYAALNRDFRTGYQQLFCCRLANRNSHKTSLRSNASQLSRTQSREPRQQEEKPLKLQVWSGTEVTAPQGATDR
Description: cDNA for the human histamine 2 receptor was cloned, expressed and transfected into HEK 293 cells as described above. Histamine binding to cells was assayed by SPA described above. For total binding, cells were assayed in a SPA reaction containing 50 mM Tris-HCl (assay buffer), pH 7.6, 1 mg wheat germ agglutinin SPA beads (Amersham PharmaciaBiotech, #RPNQ0001), and 6.2 nM ^3H-tiotidine (Net-688, NEN) (total volume per well=200 μl). Cimetidine (10 μM, Sigma #C4522) was added to appropriate wells to determine non-specific binding.
Several clones were selected as positive for binding, and a single clone (H2R10) was used to prepare membranes for binding studies. Five micrograms of protein was used per well in the SPA receptor-binding assay.
as §2

bioavailability [1] [%]	half-life [1] [h]	Ki (H3R membranes) [nM]	Ki (H3R) [nM]	Ki (H4R) [nM]	inhibition of binding to H4R (H4R)	Ki (H1R) [nM]	Ki (H2R) [nM]	SMILES
100	12.4	–	–	–	–	–	–	CC(=O)N1CCc2ccc(OCCCN3CCCCC3)cc2CC1 [Example 19, 1-[7-(3-Piperidin-1-yl-propoxy)-1,2,4,5-tetrahydro-benzo[d]azepin-3-yl]-ethanone]
49	12.2	–	–	–	–	–	–	CN(C)CC(=O)N1CCCc2cc(OCCCN3CCCCC3)ccc2C1 [Example 8, 2-Dimethylamino-1-[7-(3-piperidin-1-yl-propoxy)-1,3,4,5-tetrahydro-benzo[c]azepin-2-yl]-ethanone]
–	–	5.1	5.1	≥ 20000	did not inhibit binding H4R	648	813	CC(C)(C)OC(=O)N1CCCc2cc(OCCCN3CCCCC3)ccc2C1 [Example 1, 7-(3-Piperidin-1-yl-propoxy)-1,3,4,5-tetrahydro-benzo[c]azepine-2-carboxylic acid tert-butyl ester]
–	–	0.85	0.85	≥ 20000	did not inhibit binding H4R	1760	894	c1cc2c(cc1OCCCN1CCCCC1)CCCNC2 [Example 2, 7-(3-Piperidin-1-yl-propoxy)-2,3,4,5-tetrahydro-1H-benzo[c]azepine dihydrochloride]
